{"source": "patent US9962378B2", "about": "“ROS1 inhibitor and its use” (Macau University of Science and Technology, priority 2015, dated 2018)", "type_in_all_cases": "cell-based", "key": {"[1]": {"system": "HCC78 cells", "experiment": "colony formation assay", "settings": "HCC78 cells, 1.25, 2.5 and 5 μM, 10 days; dose-dependent", "description": "Still further, inhibitory effect of the compound of Formula (V) on the colony formation in HCC78 cells has been tested to provide further evidence that the compound of Formula (V) inhibits the formation of colonies of cancerous cell to an exceptional degree, too.\nHCC78 cells were seeded on a six-well plate at a density of 500 cells per well. The cells were exposed to various concentrations of the compound of Formula (V). After 10 days, the colonies were fixed with 4% paraformaldehyde and stained with a 0.5% (0.5% w/v) crystal violet solutions, the number of colonies >50 was counted under a dissecting microscope and surviving fractions were calculated."}, "[2]": {"system": "normal lung cells (CCD19-Lu)", "experiment": "MTT cytotoxicity assay on normal lung cells", "settings": "Homo sapiens, CCD 19Lu, 72 h, 0-20 μM, read-out: IC50 (cell viability, MTT)", "description": "(§1) HCC78 cells and CCD19-Lu cells were obtained from the American Type Culture Collection and cultured in environment of 5% CO2 at 37° C. in RPMI-1640 (GIBCO, Lift Technologies) medium supplemented with 10% fetal bovine serum (FBS) (GIBCO, Lift Technologies), 100 units/mL penicillin, and 100 μg/mL streptomycin (GIBCO, Lift Technologies), crizotinib was purchased from Selleck Chemicals.\n(§2) For MTT assay, 3000 cells were seeded on 96-well plates, then treated with DMSO or various concentrations of the compound of Formula (V) for 72 h. At the end of the incubation, 10 μL of MTT (5 mg/mL; Sigma) was added into each well, and the plates were incubated for an additional 4 hours, then the dark blue crystals were dissolved in 100 μL of the resolved solution (10% SDS and 0.1 mM HCL). Finally, the absorbance was measured by a microplate reader at 570 nm (Tecan, Morrisville, N.C., USA). The cell viability was calculated relative to untreated controls, with results based on at least three independent experiments."}, "[3]": {"system": "HCC78 cells", "experiment": "Annexin-V FITC/PI flow cytometry apoptosis assay", "settings": "HCC78 cells, 2.5, 5 and 10 μM, 24 h, compared to control group; concentration-dependent", "description": "HCC78 cells (1.0×10^5 cells/well) were allowed to attach in a 6-well plates for 24 h, cells were treated with the compound of Formula (V) for 24 h. Subsequently, cells were trypsinized, washed with PBS and stained with 100 μL binding buffer containing 2 μL Annexin-V FITC and 4 μL propidine iodide (PI) incubated in the dark at room temperature for 15 min, before further addition of 400 μL of 1× Annexin-binding buffer. The stained cells were analyzed quantitatively using a Flow Cytometer (BD Biosciences, San Jose, Calif., USA). Data were analyzed by Flow Jo software."}, "[4]": {"system": "HCC78 NSCLC cells (with ROS1 rearrangement)", "experiment": "MTT cytotoxicity assay on HCC78 NSCLC cells", "settings": "Homo sapiens, 72 h, mean±SEM, read-out: IC50 (cell viability, MTT)", "description": "as §1, §2"}, "[5]": {"system": "ROS1 phosphorylation and ROS1 downstream signaling molecules pERK1/2, pSTAT3 and pAKT", "experiment": "western blot of ROS1 phosphorylation and downstream signaling", "settings": "HCC78 cells, 2.5, 5 and 10 μM, dose-dependent", "description": "Additionally, the suppression of ROS1 phosphorylation as well as its downstream signaling pathway by the compound of Formula (V) has been studied.\nCells exposed to different concentrations of compound of Formula (V), namely 2.5, 5 and 10 μM or 2.5 μM crizotinib as described above and a control group were washed twice with cold PBS then lysed in RIPA lysis buffer containing protease and phosphatase inhibitors, protein concentration of the cell lysates were measured using the Bio-Rad protein Assay kit (Bio-Rad, Philadelphia, Pa., USA). After equalizing the protein concentrations of the samples, 5× laemmli buffer was added and boiled at 100° C. for 5 min. Equal amounts of protein (20-40 μg per lane) were separated with a 10% SDS-PAGE gel, then the separated proteins were transferred to a nitrocellulose (NC) membrane, which was then exposed to 5% non-fat dry milk in TBS containing 0.1% Tween 20 (0.1% TBST) for 1 hour at room temperature with constant agitation, followed by overnight incubation at 4° C. with primary antibodies, after washing 3 times by TBST, the membranes were incubated with secondary rabbit or mouse fluorescent antibodies, the signal intensity of the membranes was detected by an LI-COR Odessy scanner (Belfast, Me., USA). Antibodies against GAPDH, p-AKT, p-ROS1, ROS1, p-ERK, ERK, p-STAT3, STAT3 were purchased from Cell signaling Technology. […]"}}}
{"molecule": "CCN(CC)CCNC(=O)c1cc2c(=O)n(C)c3cc(Cl)ccc3c2s1", "note": "[compound of Formula (V)]", "values": [{"measurement": "formation of HCC78 cell colonies", "setting": "[1]", "result": "advantageously inhibited the formation of HCC78 cell colonies"}, {"measurement": "IC50", "setting": "[2]", "result": "> 20", "unit": "µM"}, {"measurement": "induction of apoptosis", "setting": "[3]", "result": "induced significant levels of cell apoptosis compared to the control group"}, {"measurement": "IC50", "setting": "[4]", "result": "6.35 ± 1.44", "unit": "µM"}, {"measurement": "ROS1 downstream signaling molecules pERK1/2, pSTAT3 and pAKT", "setting": "[5]", "result": "inhibition"}, {"measurement": "ROS1 phosphorylation", "setting": "[5]", "result": "inhibition of ROS1 phosphorylation"}]}
